This is an account of results in the METLIN SMRT retention time set (Domingo-Almenara et al. 2019).

The data set can be described thus: gradient 5% acetonitrile 3 min, to 50% in 2 min, to 85% in 15 min, held 3 min, 100 µL/min. Conditions: column: Zorbax Extend-C18 2.1 x 50 mm; eluents: water / acetonitrile, 0.1% formic acid. The method in brief:
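In both positive and negative ionization mode, a quadrupole time-of-flight mass spectrometer coupled to HPLC analyzed pure standards run in mixtures of ~100 molecules. The Zorbax Extend-C18 column (2.1 × 50 mm, 1.8 μm) was operated at 100 μL/min with water and acetonitrile, each containing 0.1% formic acid. The dead volume was 40 μL and the dwell volume 900 μL. Retention time came from adduct peaks that were computationally picked and individually inspected by hand.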
Regarding `O=C(NC1CCCC1)C1c2cccn2CC(=O)N1Cc1ccc(Cl)cc1` (centres undefined), the RP-LC retention time came to 905 s.

`COc1ccc(-c2noc(C3CC(=O)N(c4ccccc4)C3)n2)c(OC)c1` (centres undefined) gave an RP-LC retention time of 803 s.

As for `COc1ccc(C(=O)N2CCc3cn(C)c4cccc(c34)C2)c(OC)c1`, the RP-LC retention time was 875 s.

Compound `O=C(c1nnc(-c2ccc(S(=O)(=O)N3CCCC3)cc2)o1)N1CCCCC1` showed an RP-LC retention time of 847 s.

On to `CCc1nc(OCC(=O)Nc2ccc(C)cc2Br)c2ccccc2n1`, for which the RP-LC retention time is 895 s.

`CCOc1cc(-c2ccc(F)cc2)nc2ccc(NS(=O)(=O)c3cccc(C#N)c3)cc12`: the RP-LC retention time was found to be 816 s.

Consider `CC(C)CN1CCCn2ccnc2C1C1CCN(C(=O)C(C)C)CC1` (centres undefined), for which the RP-LC retention time was 587 s.

In turn, `CC(=O)c1ccc(S(=O)(=O)NCCC2CCN(C(=O)c3ccc(F)cc3)CC2)cc1` returned an RP-LC retention time of 795 s.

`O=C(NCCn1nc(-c2cccs2)ccc1=O)c1ccc(-n2cccn2)nn1` yielded an RP-LC retention time of 685 s.

`CCN1C(=O)C(C)(C(=O)NCc2cccc(Cl)c2)Oc2cccnc21` (centres undefined) displayed an RP-LC retention time of 903 s.

With `N#Cc1cccc(C(=O)N2CCN(c3cc(-c4ccccc4)[nH]n3)CC2)c1`, the RP-LC retention time amounted to 749 s.

Regarding `O=C(O)c1ccccc1N1C(=O)C2C3C=CC(C3)C2C1=O` (centres undefined), the RP-LC retention time turned out to be 621 s.

Consider `Cc1ccccc1NC(=O)Cn1c(C)nc2c(sc3nc(-c4ccccc4)ccc32)c1=O`, for which the RP-LC retention time turned out to be 1060 s.

Turning to `COC(C)C(O)(C(=O)OCC1=CCN2CC[C@H](O)[C@@H]12)C(C)C` (some centres undefined), the RP-LC retention time was found to be 644 s.

The compound `COc1ccc(NC(=O)C2CCCN(c3ncnc4c3nc3n4CCCCC3)C2)cc1` (centres undefined) showed an RP-LC retention time of 753 s.

Take `COc1ccc(-c2nc(C)cc3nn(CC(=O)Nc4cccc(OC)c4)c(=O)n23)cc1`: the RP-LC retention time amounted to 800 s.

In turn, `CC(Cc1ccco1)NC(=O)Cn1cccc1-c1nnc(-c2ccccc2)o1` (centres undefined) yielded an RP-LC retention time of 898 s.

Compound `O=C(Nc1cccc(Br)c1)c1cc(-c2ccccn2)n[nH]1` displayed an RP-LC retention time of 843 s.

On to `O=c1n(Cc2ccc(F)cc2)nc2c(S(=O)(=O)N3CCCCCC3)cccn12`, for which the RP-LC retention time amounted to 956 s.

On to `Cc1ccc(NC(=O)Cn2c(=O)n(-c3ccc(F)cc3)c3ncccc32)cc1`, for which the RP-LC retention time turned out to be 880 s.

`CCS(=O)(=O)N1CCc2c(c(CN(C(=O)c3ccc(F)cc3)c3ccccc3)nn2C)C1` registered an RP-LC retention time of 804 s.

Compound `Cn1cnc(C(=O)N2CC(c3nc(CCOCC4CCOCC4)no3)C2)c1` returned an RP-LC retention time of 579 s.

In the case of `CCN(CC)CCNC(=O)Cn1nc(C)c2nn(-c3ccc(F)cc3)c(-n3cccc3)c2c1=O`, the RP-LC retention time was determined as 675 s.

Turning to `COc1cc2c(cc1OC)C(C(=O)NCCCN1CCN(C)CC1)C(c1cccs1)N(C)C2=O` (centres undefined), the RP-LC retention time is 572 s.

Take `Cc1c(C(=O)Nc2cc(=O)n(C)c(=O)n2C)cccc1[N+](=O)[O-]`: the RP-LC retention time was 652 s.

Turning to `Cc1ccc(Cn2c(=O)c(N3CCN(C(=O)C4CCCO4)CC3)nc3cccnc32)cc1` (centres undefined), the RP-LC retention time stood at 998 s.

`Cc1cc(N2CCCC2)n2nc(CN3CCN(CC(C)C)CC3)nc2n1` had an RP-LC retention time of 549 s.

For `CCN(CC)C(=O)C1CCN(S(C)(=O)=O)c2cc(Cl)ccc2O1` (centres undefined), the RP-LC retention time is 821 s.

For `CC(=O)NCc1ccc(-c2noc(-c3ccc(Br)cc3)n2)s1`, the RP-LC retention time was 938 s.

As to `O=C(NCCc1ccccc1)c1cc2sccc2n1Cc1ccc(F)cc1`, the RP-LC retention time came to 1140 s.

In turn, `COc1cc(CNCCc2c[nH]c3ccccc23)ccc1OCc1ccc2c(c1)n(C)c(=O)n2C` showed an RP-LC retention time of 670 s.

As for `CCCn1cc(C(=O)NCCCOCC)c(S(=O)(=O)N2CCN(c3cccc(Cl)c3)CC2)n1`, the RP-LC retention time was determined as 1110 s.

The compound `CCCC(NC(=O)c1cccs1)C(=O)Nc1nc2ccccc2[nH]1` (centres undefined) showed an RP-LC retention time of 668 s.

Turning to `Cc1cc(-c2nnc(-c3ccco3)o2)c(C)n1CC(=O)NCc1ccc(Cl)cc1`, the RP-LC retention time came out at 637 s.

Compound `O=C(NCCN1CCCCCC1)C1CCN(c2nc3cccnc3s2)CC1` registered an RP-LC retention time of 598 s.

Compound `CCOc1ccc(CCNc2nc(-c3ccc(OC)cc3)no2)cc1OCC` had an RP-LC retention time of 1020 s.

With `CC(C)C(=O)Nc1ccc(C2(C(=O)NCCN3CCc4ccccc4C3)CCCCC2)cc1`, the RP-LC retention time stood at 732 s.

`Cc1cc(N2CCN(C(=O)COc3ccc(Cl)cc3)CC2)nc2nnc(C)n12` returned an RP-LC retention time of 637 s.

As to `Cc1nc(-c2cc(S(=O)(=O)N(Cc3ccccc3)C(C)C)c(C)s2)sc1C`, the RP-LC retention time stood at 978 s.

The compound `CCOc1cc(C(=O)NC2CCN(c3cc(-c4ccc(Cl)cc4)[nH]n3)C2)cc(OCC)c1OCC` (centres undefined) yielded an RP-LC retention time of 927 s.

`CCCN1CCN(C(=O)CC(C)S(=O)(=O)c2ccc3c(c2)CCN3C(C)=O)CC1` (centres undefined) came in with an RP-LC retention time of 586 s.

`Cc1ccc(-c2noc(CN3C(=O)COc4ccccc43)n2)cc1` gave an RP-LC retention time of 1030 s.

Regarding `Nc1nc(SCC(=O)Nc2cccc(C(F)(F)F)c2)n[nH]1`, the RP-LC retention time is 637 s.

Compound `COc1cccc(CC(=O)N2CCC(Nc3ncnc4c3CCC4)C2)c1` (centres undefined) registered an RP-LC retention time of 604 s.

Take `CCn1cnc(S(=O)(=O)N2CCC(C(=O)N3CCN(c4ccc(OC)cc4)CC3)CC2)c1`: the RP-LC retention time amounted to 668 s.

`c1ccc(CCNc2nc(-c3ccccc3)no2)cc1` displayed an RP-LC retention time of 1000 s.

`O=C(CN1C(=O)C2CCCCN2c2ccc(S(=O)(=O)N3CCCC3)cc21)NC1CC1` (centres undefined) registered an RP-LC retention time of 770 s.

Take `CC1CCC2(CC1)NC(=O)N(CC(=O)Nc1ccc3c(c1)OCO3)C2=O` (centres undefined): the RP-LC retention time turned out to be 708 s.

With `c1ccc(N2CCN(Cc3cccn3-c3nnc(N4CCOCC4)s3)CC2)nc1`, the RP-LC retention time turned out to be 756 s.

Compound `O=C1c2ccccc2C(=O)N1CCSc1nnc2sc3ccccc3n12` registered an RP-LC retention time of 696 s.

With `CN1C(=O)C2(CCN(C(=O)Nc3ccc4c(c3)OCCO4)C2)c2ccccc21` (centres undefined), the RP-LC retention time was 748 s.

In the case of `CCOC(=O)c1cc(C2CC2)nc2c1c(=O)n(CCc1c(C)noc1C)c(=O)n2C`, the RP-LC retention time is 980 s.

`COc1ccc(C(=O)Nc2cccc(-c3ccc(S(C)(=O)=O)nn3)c2)cc1OC` showed an RP-LC retention time of 681 s.

`Cc1ccc(CNC(=O)c2nc(Cn3c(=O)oc4ccc(Cl)cc43)no2)cc1` returned an RP-LC retention time of 983 s.

`CCN(C(=O)Cc1ccccc1)c1nc(-c2ccc(C)cc2)cs1` came in with an RP-LC retention time of 1320 s.

`O=C(NCc1ccc(Cl)cc1)c1nc(N2CCOCC2)c2ccccc2n1` registered an RP-LC retention time of 721 s.

Turning to `Cc1cc(N2CCC(NC(=O)Nc3ccc(F)cc3F)C2=O)ccc1F` (centres undefined), the RP-LC retention time is 845 s.

On to `Cc1noc(C)c1-c1ccc(S(=O)(=O)Nc2cccc(F)c2)cc1`, for which the RP-LC retention time was determined as 916 s.

`O=C(C1CCCN(c2ccc(-c3ccccc3)nn2)C1)N1CCN(c2ccccc2)CC1` (centres undefined) came in with an RP-LC retention time of 783 s.

With `Cn1cc(-c2ccc(F)cc2)cc1C(=O)NC1CC1`, the RP-LC retention time worked out at 847 s.

For `COc1ccccc1NC(=O)N1CCCC1c1cc(C)on1` (centres undefined), the RP-LC retention time was found to be 800 s.

`CCC(=O)Nc1ccc(CCc2nc3ccc(C(=O)NCCC4=CCCCC4)cc3[nH]2)cc1` displayed an RP-LC retention time of 696 s.

With `O=C(Nc1ccccc1)N1CCC(N(C(=O)C2CC2)C2CCOCC2)CC1`, the RP-LC retention time turned out to be 697 s.

Consider `Cc1cccc(NC(=O)Cn2cnc3nc(N4CCCC(C(=O)NC5CC5)C4)sc3c2=O)c1C` (centres undefined), for which the RP-LC retention time came to 688 s.

As for `CCCn1cc2c3c(cccc31)CN(C(=O)COc1ccc(F)cc1)CC2`, the RP-LC retention time turned out to be 1030 s.

Regarding `CCc1noc(-c2cnc3nc(C)ccc3c2NCCc2ccccc2)n1`, the RP-LC retention time was 621 s.

In turn, `CC1CCCCN1CCCNC(=O)CCC(=O)N1CCc2c(c(C(=O)N3CCCC3)nn2C)C1` (centres undefined) displayed an RP-LC retention time of 586 s.

Compound `Cn1cc(C(=O)N2CCOCC2)cc(NC(=O)c2cccs2)c1=O` yielded an RP-LC retention time of 596 s.

On to `CCN1C(=O)c2c(C(=O)N3CCOCC3)ncn2CC1(C)C(=O)NCc1ccc(F)cc1` (centres undefined), for which the RP-LC retention time is 678 s.

In the case of `Cc1nc2cc(-c3noc(Cc4ccccc4Cl)n3)ccc2o1`, the RP-LC retention time was found to be 1030 s.

`O=C1CCCc2c1cc(C(=O)Nc1ccc(F)cc1F)c(=O)n2-c1ccc(F)cc1`: the RP-LC retention time amounted to 785 s.

Consider `O=C(c1ccccc1[N+](=O)[O-])N1CCN(Cc2nc(-c3ccco3)cs2)CC1`, for which the RP-LC retention time came to 682 s.

The compound `CSc1nnc(-c2nn(C)c3c2CN(C(=O)c2c(F)cccc2F)CC3)n1C` registered an RP-LC retention time of 695 s.

Compound `Cc1oc2cc(OCC#N)ccc2c(=O)c1-c1ccc(Cl)cc1` registered an RP-LC retention time of 926 s.

On to `Cc1cccc(Cn2c(CN3CCC(C(=O)NC4CCCCCCC4)CC3)cc3ccccc32)c1`, for which the RP-LC retention time was found to be 936 s.

`Cc1cc(C)cc(-c2nc(C3CC(=O)N(c4ccc(Cl)cc4)C3)no2)c1` (centres undefined): the RP-LC retention time is 1200 s.

`COc1ccc(S(=O)(=O)N2CCC(C(=O)N[C@@H](C)C(=O)O)CC2)cc1` displayed an RP-LC retention time of 652 s.

The compound `Cn1cc(CN2CCC(C(=O)NC3CCN(Cc4ccccc4)CC3)CC2)c2cc(Cl)ccc21` gave an RP-LC retention time of 593 s.

Turning to `COc1ccc(NC(=O)Cc2csc(NC(=O)C3CC3)n2)cc1C`, the RP-LC retention time was found to be 706 s.
